In US10336768B2, “Pyrimidine compounds and methods using the same” (Yuma Therapeutics, Inc., priority 2014, dated 2019):
In brackets after ≈: the same amount, converted by molar mass. Several values for one entry are separate records, joined by “and”; a condition that tells them apart may be missing. Identical values can stand only once. Like-named read-outs stand apart in the source and are kept apart here. Marks after values point to notes of the source that are not given here.

Tests used:
[1] = Solubility in pH 7.4 buffer; assay type: physicochemical; conditions: pH 7.4, aqueous buffer, pH of 7.4
Method: Compound solubility was determined in pH 7.4 buffer. Aqueous solubility of greater than or equal to about 0.5 μM (e.g., greater than or equal to about 1 μM, greater than or equal to about 2 μM, greater than or equal to about 5 μM, greater than or equal to about 10 μM, greater than or equal to about 20 μM, or greater than or equal to about 30 μM) may indicate a compound having acceptable solubility for medical use, e.g., for treatment of a neurodegenerative disorder.

[2] = Mouse liver microsomal stability; assay type: in vitro ADME; conditions: mouse liver microsomes; read-out: microsomal stability T1/2
Method: Metabolic stability of the compounds of the invention was assessed by monitoring their degradation in mouse liver microsomes.

Hsp70 = test: Hsp90 cell based functional assay (Western blot for Hsp70, Hsp90)
Method: Cells were treated with compounds of the invention for 24 h and then lysed in a buffer containing NP-40, orthovanadate, and protease inhibitors. Western blots were performed with antibodies specific to Hsp70, Hsp90, or actin (as control).

SH-SY5Y-hTAU441 cells = test: Cytotoxicity assay (MTT); assay type: cell-based; conditions: FIG. 6A
Method: SH-SY5Y-hTAU441 cell viability was determined using the MTT assay. […] SH-SY5Y cell viability may also be measured after 24 and 48 h with the CellTiter-Glo® assay that measures ATP-levels. In addition, cytotoxicity may be assessed using the Celigo® with live cell microscopic imaging and a GE InCell Analyzer 2000 to measure multiple outcomes including apoptosis markers, membrane permeability, and mitochondrial activity.

His-tagged-Hsp90 = tested on: T1, His-tagged-Hsp90; test: Hsp90 biochemical assay (AlphaLISA); assay type: binding
T1 construct: fused on or other part: His tag (captured on Ni2+-coated beads)
Method: This assay employs biotinylated geldanamycin, His-tagged-Hsp90, and Ni^+2 coated beads. This assay is homogenous and miniaturized to 384-well plates. Measurement of binding activity was performed on an Envision reader. […] This assay is the primary assay for evaluating compounds of the invention.

[3] = tested on: P-glycoprotein (P-gp, MDR1); test: MDR1-MDCK permeability assay; assay type: in vitro ADME; conditions: dog, apical to basal
From the text: (§1) Compounds may be assessed in MDR1-MDCK permeability assay or Caco-2 permeability assay to determine their permeability. Apical (A) to basal (B) permeability >3×10^−6 cm/sec and B→A/A→B asymmetry <3 for a compound are considered acceptable predictors of brain penetration, and compounds having such properties are unlikely to be P-glycoprotein (P-gp) substrates. Compound 20 has shown excellent permeability in MDR1-MDCK assay (A-B=28×10^−6 cm/s) with low asymmetry (B→A/A→B asymmetry=0.9).

P-gp (MDR1) = test: MDR1-MDCK permeability assay; assay type: in vitro ADME; conditions: dog, read-out: B→A/A→B asymmetry
From the text: as §1

[4] = Mouse pharmacokinetics, plasma levels (LC-MS/MS); assay type: in vivo; conditions: for AUC(0-t): read-out: AUC(0-8 h); for half-life: read-out: Half life (t1/2) (converted)
Method: Plasma and brain samples were taken pre-dose and at post dose time points of pre-dose, 15 and 30 minutes, 1, 2, and 8 hours. The pre-dose group was represented by 5 animals, whereas the post-dose groups were represented by 3 animals.
Bioanalysis of mouse plasma samples for compound 20 was conducted by protein precipitation and LC-MS/MS with compound 22 as the internal standard. The method was based on a ‘generic assay’ and some method development was conducted to tailor that assay to the particular compound and internal standard. The eventual non-GLP assay was first tested by analyzing a bioanalytical run with spiked mouse plasma samples. The qualification run passed by the run acceptance criteria (see below). Bioanalysis was then conducted of plasma sample extracts and of brain sample homogenate extracts, using a calibration and quality control samples spiked in mouse plasma. The assay is described below.
Compound 20 and compound 22 were extracted from the mouse plasma matrix by protein precipitation. To 20.0 μL of sample was added 10.0 μL of internal standard working solution (1000 ng/mL in MeOH) and 200 μL of MeCN. The mixture was vortexed (5 sec) and centrifuged (14000 rpm, 5 min). The supernatant was then recovered and evaporated to dryness. The residue was redissolved in 100 μL of redissolving solution (80:20 v:v of mobile phases A:B). For analysis, 20.0 μL was injected in to the LC-MS/MS system.
All chromatography was done with a type 1100 liquid chromatograph (Agilent), equipped with an auto-injector. The analytical column was an Xbridge C18 3.5 μm 2.1×50 mm (Waters), employed at 50° C. The mobile phase was a gradient, composed of solvent A:1 g/L ammonium acetate in Milli-Q water, and solvent B: MeCN.
All experiments were done on an API 3000 triple quadrupole instrument (AB Sciex), operated in positive turbo-ionspray mode (‘TIS+’). The instrument parameters had been optimized during method development.
[…] Two sets of calibration samples were used, one set placed before and the other placed after the study samples. In addition, QC samples at 5 levels (two samples at each level) were included in the run, as performance indicators and for run acceptance.
Evaluation of pharmacokinetic parameters was conducted by calculation from the mean concentration (n=5 pre-dose, n=3 post-dose) at each time point.

[5] = mouse, plasma, Table 11, footnote: excluding IRN12 result
[6] = mouse, plasma, Table 12, footnote: including IRN12 result

SMILES: Nc1nc(-c2c(Cl)cc(Cl)c3c2CCO3)c2[nH]ccc2n1 [compound 20, 4-(5,7-Dichloro-2,3-dihydrobenzofuran-4-yl)-5H-pyrrolo[3,2-d]pyrimidin-2-amine]
- solubility [1]: 30 µM (≈ 9.64 µg/mL)
- half-life [2]: 26 min
- expression of Hsp70 (Hsp70; Western blot, FIG. 5B): increase in the expression of Hsp70
- expression of Hsp90 (Hsp70; Western blot, FIG. 5B, relative to variation in concentration): expression of Hsp90 remains unchanged
- EC50 (Hsp70; read-out: Hsp 70 agonist activity): > 10000 nM
- cell viability (SH-SY5Y-hTAU441 cells): did not affect cell viability
- IC50 (His-tagged-Hsp90; AlphaLISA, FIG. 5A, read-out: Hsp90 inhibitory activity IC50): 740 ± 100 nM
- IC50 (His-tagged-Hsp90; IC50 class, AlphaLISA (primary assay), read-out: Hsp90 inhibitory activity): < 1000 nM
- Papp A→B [3]: 28 ×10⁻⁶ cm/s
- efflux ratio (P-gp (MDR1)): 0.9
- Mean Group Concentration, plasma ([4]; 0.25 h): ^a Excluding IRN 12 result: 14950 ng/mL
- Plasma concentration, individual animals ([4]; 15 minutes post dose (B_0.25), values above 8000 ng/mL out of range, indicative): 17,900 ^b ng/mL and 12,000 ^b ng/mL
- Plasma concentration, individual animals ([4]; 30 minutes post dose (C_0.5), out of range (>8000 ng/mL), indicative): 11,500 ^b ng/mL and 10,500 ^b ng/mL and 11,100 ^b ng/mL
- Plasma concentration, individual animals ([4]; 1 hour post dose (D_1)): 7,130 ng/mL and 7,470 ng/mL
- Plasma concentration, individual animals ([4]; 2 hours post dose (E_2)): 4,180 ng/mL and 4,440 ng/mL
- Plasma concentration, individual animals ([4]; 8 hours post dose (F_8)): 99.3 ng/mL and 22.5 ng/mL and 21.9 ng/mL
- Kelimination ([4]; Table 11, footnote: excluding IRN12 result): 0.725 per hour (h^−1)
- Kelimination ([4]; Table 12, footnote: including IRN12 result): 0.730 per hour (h^−1)
- concentration at 0.25 h ([4]; mouse, plasma, 0.25 h, n=3 incl. IRN 12, read-out: Mean Group Concentration, plasma): 9970 ng/mL
- concentration at 15 min ([4]; mouse, plasma, 15 minutes post dose (B_0.25), values above 8000 ng/mL out of range, indicative, read-out: Plasma concentration, individual animals): 2.66 ng/mL
- concentration at 0.5 h ([4]; mouse, plasma, 0.50 h, read-out: Mean Group Concentration, plasma): 11000 ng/mL
- concentration at 1 h ([4]; mouse, plasma, 1.00 h, read-out: Mean Group Concentration, plasma): 7160 ng/mL
- concentration at 1 h ([4]; mouse, plasma, 1 hour post dose (D_1), read-out: Plasma concentration, individual animals): 6890 ng/mL
- concentration at 2 h ([4]; mouse, plasma, 2.00 h, read-out: Mean Group Concentration, plasma): 4260 ng/mL
- concentration at 2 h ([4]; mouse, plasma, 2 hours post dose (E_2), read-out: Plasma concentration, individual animals): 4150 ng/mL
- concentration at 8 h ([4]; mouse, plasma, 8.00 h, read-out: Mean Group Concentration, plasma): 47.9 ng/mL
- AUC(0-inf) [4, 5]: 27100 ng·h/mL
- Cmax [4, 5]: 11000 ng/mL
- Tmax [4, 5]: 30 min
- AUC(0-t) [4, 5]: 27000 ng·h/mL
- half-life [4, 5]: 57.6 min
- AUC(0-inf) [4, 6]: 28300 ng·h/mL
- Cmax [4, 6]: 15000 ng/mL
- Tmax [4, 6]: 15 min
- AUC(0-t) [4, 6]: 28300 ng·h/mL
- half-life [4, 6]: 57 min
